Assay results: US20220184081A1, “ANTIPRURITIC AGENT USING PAC1 RECEPTOR ANTAGONIST” (KAGOSHIMA UNIVERSITY, priority 2019, published 2022)
No end group written: not given here.

Columns and labels:
[1] = system: PACAP-induced itch behavior in mice; assay: Itch behavior induced by PACAP intradermal administration; format: in vivo, mouse; conditions: for biting, licking or scratching behavior induced by PACAP (100 pmol) intradermal administration: simultaneous intradermal administration with PACAP, 0.01 to 1 nmol, FIG. 7A, 8, 9
Excerpt: SLN indicates intradermal administration of normal saline. DMSO (10% solution, dissolved in normal saline) is a solvent for PA-8.
SLN indicates intradermal administration of normal saline. VEH (10% DMSO solution, dissolved in normal saline) is a solvent for PA-8 and the compound 2o.
SLN indicates intradermal administration of normal saline. VEH (10% DMSO solution, dissolved in normal saline) is a solvent for PA-9 and the compound 3d.

[2] = target: T1, mouse PAC1 receptor (Mus musculus, UniProt P70205); assay: CREB phosphorylation by PACAP stimulus, Western blot, PAC1/CHO cells; format: cell-based; conditions: PAC1/CHO cells; for CREB phosphorylation by PACAP (1 nM): compound 10 pM to 10 nM for 30 minutes before PACAP, FIG. 4A, 4C, 4D, 5
T1 construct: expressed in transfected cells; host or cells: CHO cells
T1 sequence (P70205 21-496): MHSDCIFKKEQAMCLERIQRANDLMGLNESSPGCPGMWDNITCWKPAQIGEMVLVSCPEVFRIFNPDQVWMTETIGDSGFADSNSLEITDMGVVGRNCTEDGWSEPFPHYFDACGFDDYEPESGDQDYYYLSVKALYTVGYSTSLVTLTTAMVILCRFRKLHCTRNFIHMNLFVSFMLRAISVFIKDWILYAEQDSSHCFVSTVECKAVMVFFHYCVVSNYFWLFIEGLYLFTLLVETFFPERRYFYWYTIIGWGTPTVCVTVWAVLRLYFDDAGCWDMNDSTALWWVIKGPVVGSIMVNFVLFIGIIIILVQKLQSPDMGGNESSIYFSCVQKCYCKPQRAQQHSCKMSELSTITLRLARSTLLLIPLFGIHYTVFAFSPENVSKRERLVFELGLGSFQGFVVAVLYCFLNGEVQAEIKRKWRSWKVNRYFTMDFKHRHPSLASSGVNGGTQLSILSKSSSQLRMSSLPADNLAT
Experimental: The effect of each compound on the phosphorylation of CREB (cAMP-responsive element-binding protein) produced by a PACAP stimulus was examined by Western blot analysis using an anti-phosphorylated CREB (pCREB) antibody with a mouse PAC1 receptor-expressing CHO cells (PAC1/CHO cells) and a mouse VPAC1 receptor-expressing CHO cells (VPAC1/CHO cells).
Specifically, treatment with a compound (PA-8, compound 2j and compound 2o) at 10 pM to 10 nM or a solvent therefor, DMSO (VEH: 0.1% DMSO-containing phosphate buffer solution) was performed for 30 minutes, 1 nM PACAP was then added, and protein was recovered within 30 minutes after a PACAP stimulus.
The effect of each compound on the phosphorylation of CREB (cAMP-responsive element-binding protein) produced by a PACAP stimulus was examined by Western blot analysis using an anti-phosphorylated CREB (pCREB) antibody with a mouse PAC1 receptor-expressing CHO cells (PAC1/CHO cells).

[3] = system: Compound 48/80-induced itch behavior in mice; assay: Itch behavior induced by Compound 48/80 intradermal administration; format: in vivo, mouse; conditions: intrathecal pre-administration (i.t., 10 minutes before i.d.), 1 nmol; Compound 48/80 100 μg/10 μL; FIG. 11
Experimental: (§1) Compound 48/80 (100 μg/10 μL) was intradermally injected into the waist of each mouse (intradermal injection, i.d.). The reaction of biting, licking or scratching the injected site was defined as itch behavior, and the behavioral time was counted every 5 minutes. […] DMSO (10% solution, dissolved in normal saline) is a solvent for PA-8 or PA-9.

[4] = system: chloroquine-induced itch behavior in mice; assay: Itch behavior induced by chloroquine intradermal administration; format: in vivo, mouse; conditions: intrathecal pre-administration (i.t., 10 minutes before i.d.), 1 nmol; chloroquine 100 μg/10 μL; FIG. 10
Experimental: as §1, with “Chloroquine” for “Compound 48/80”

[5] = system: atopic dermatitis mouse model; assay: Atopic dermatitis mouse model (DNFB); format: in vivo, ICR mice; conditions: 30 mg/kg p.o. 30 minutes before 1 hour video observation; FIG. 13
Experimental: The present test was carried out with reference to the method of Kitamura et al. that is a test system published as a method for evaluating itch in animals (Kitamura A., Takata R., Aizawa S., et al.: A murine model of atopic dermatitis can be generated by painting the dorsal skin with hapten twice 14 days apart, Scientific Rep., 8: 5988, 2018).
Five-week-old ICR mice (30 mice) were each placed in a cage, and were then conditioned for 1 week. Thereafter, three days before initiation of the test, the waist of each mouse was shaved. On the experiment start date, for the purpose of destroying the function of skin barrier, tape stripping was carried out, and 0.15% 2,4-dinitrofluorobenzene (DNFB) solution [acetone/olive oil (3:1)] was applied to the shaved waist of each mouse, using a 100-μIL pipette. Seven days later, the 0.15% DNFB solution was applied thereto once again, and two hours later, video observation was carried out for 1 hour. The shaved 30 mice were divided into 5 groups (6 mice per group), namely, a 30 mg/kg PA-8 oral (p.o.) administration group, a 30 mg/kg compound 2o oral (p.o.) administration group, a 30 mg/kg PA-9 oral (p.o.) administration group, a 30 mg/kg compound 3d (p.o.) administration group, and a solvent administration group (VEH: oral administration of 10% DMSO aqueous solution). Oral administration was carried out 30 minutes before initiation of the video observation.
An outline of the procedures of a behavioral experiment using the atopic dermatitis mouse model is shown in FIG. 12, and the results obtained by evaluating the time spent in scratching of each group are shown in FIG. 13.

[6] = system: psoriasis mouse model; assay: Psoriasis mouse model (imiquimod); format: in vivo, ICR mice; conditions: 30 mg/kg p.o. 30 minutes before 1 hour video observation; FIG. 14
Experimental: The present test was carried out with reference to the method of van der Fits et al. that is a test system published as a method for evaluating itch in animals (van der Fits L., Mounts S., Voerman J S A., et al.: Imiquimod-Induced Psoriasis-Like Skin Inflammation in Mice Is Mediated via the IL-23/IL-17 Axis, J. Immunol., 182, 5836-5845, 2009).
Five-week-old ICR mice (20 mice) were each placed in a cage, and were then conditioned for 1 week. Thereafter, three days before initiation of the test, the waist of each mouse was shaved. Then, 62.5 mg of commercially available imiquimod cream (5% Beselna Cream; MOCHIDA PHARMACEUTICAL CO., LTD.) was applied onto the shaved waist skin of the mice once a day for 5 days, so as to produce imiquimod-induced psoriasis model. Twenty-four hours after the final application of the cream (Day 5), video observation was carried out for 1 hour. The shaved 20 mice were divided into 5 groups (4 mice per group), namely, a 30 mg/kg PA-8 oral (p.o.) administration group, a 30 mg/kg compound 2o oral (p.o.) administration group, a 30 mg/kg PA-9 oral (p.o.) administration group, a 30 mg/kg compound 3d (p.o.) administration group, and a solvent administration group (VEH: oral administration of 10% DMSO aqueous solution). Oral administration was carried out 30 minutes before initiation of the video observation.

[7] = system: serotonin (5-HT)-induced itch mouse model; assay: Serotonin (5-HT)-induced itch mouse model; format: in vivo; conditions: intrathecal pre-administration 30 minutes before 5-HT 50 nmol i.d.; PA-8 0.1 or 1 nmol; P6-38 100 pmol; FIG. 1
Experimental: 5-HT (50 nmol, 10 μL) was intradermally injected into the waist of each mouse (intradermal injection, i.d.). The reaction of the mice to bite, lick or scratch the injected site was defined as an itch behavior, and the action time was measured every 5 minutes. […] SLN indicates the effects obtained in the case of administering normal saline instead of 5-HT. ACSF is an abbreviation of an artificial cerebrospinal fluid, which was a solvent for P6-38 and PA-8.

[8] = system: patients with atopic dermatitis; conditions: patients with high severity, insufficient effect of topical steroids/tacrolimus; cited from earlier work
[9] = system: mice; assay: Itch behavior upon waist intradermal administration of peptide; format: in vivo, mouse; conditions: waist intradermal administration 10 μL; PACAP 1 to 1,000 pmol; VIP 100 pmol; FIG. 6
Excerpt: Accordingly, it is considered that this effect is mediated by the PAC1 receptors (FIG. 6).

Compound	biting, licking or scratching behavior induced by PACAP (100 pmol) intradermal administration [1]	CREB phosphorylation by PACAP (1 nM) [2]	itch behavior induced by the DNFB treatment (time spent in scratching) [5]	itch behavior induced by application of imiquimod (time spent in scratching) [6]	further results
O=C(NCCc1c[nH]cn1)C1CC(=O)N(c2n[nH]c3ccccc23)C1 (centres unmarked) [PA-9]	suppressed in a dose-dependent manner	suppressed depending on the concentration	significantly suppressed	significantly suppressed	Compound 48/80-induced itch behavior [3]: almost completely suppressed; chloroquine-induced itch behavior [4]: almost completely suppressed
CCOc1cccc(C2CC(=O)Nc3nc(N)[nH]c(=O)c32)c1 (centres unmarked) [compound 2j, 2-Amino-5-(3-ethoxyphenyl)-5,8-dihydro-3H,6H-pyrido[2,3-d]pyrimidine-4,7-dione]	–	suppressed depending on the concentration	–	–	–
Nc1nc2c(c(=O)[nH]1)C(c1cccc(OC(F)(F)F)c1)CC(=O)N2 (centres unmarked) [compound 2o, 2-Amino-5-(3-trifluoromethoxyphenyl)-5,8-dihydro-3H,6H-pyrido[2,3-d]pyrimidine-4,7-dione]	suppressed in a dose-dependent manner	suppressed CREB phosphorylation	significantly suppressed	significantly suppressed	effect of suppressing CREB phosphorylation compared with PA-8 ([2]; 10 pM to 10 nM): slightly stronger effect of suppressing CREB phosphorylation than PA-8
O=C(NCCc1c[nH]cn1)C1CC(=O)N(c2n[nH]c3c(Cl)cccc23)C1 (centres unmarked) [compound 3d, N-[2-(1H-imidazol-4-yl)ethyl]-1-(7-chloro-1H-indazol-3-yl)-5-oxo-3-pyrrolidinecarboxamide]	suppressed in a dose-dependent manner	suppressed depending on the concentration	significantly suppressed	significantly suppressed	–
O=C1CC[C@@]2(O)[C@H]3Cc4ccc(O)c5c4[C@@]2(CCN3CC2CC2)[C@H]1O5 [naltrexone]	–	–	–	–	itch behavior induced by PACAP (100 pmol) intradermal administration ([1]; subcutaneous administration 1 mg/kg 15 minutes before PACAP, FIG. 7B): significantly suppressed
PACAP 6-38	–	–	–	–	5-HT-induced itch behavior (bite, lick or scratch the injected site, action time) [7]: did not provide significant effects
dupilumab: human type anti-human IL-4/IL-13 receptor monoclonal antibody	–	–	–	–	share of patients for whom the drug is effective [8]: approximately 40%
vasoactive intestinal peptide (HSDAVFTDNYTRLRKQMAVKKYLNSILN; ends and bridges not checked; UniProt P01282 125-152, looked up) [VIP]	–	–	–	–	itch behavior (biting, licking or scratching the administered site) caused by the peptide [9]: such effect was not observed
